Data reported in PubChem BioAssay AID328 (DTP/NCI, 2004).
Several values for one entry are separate records, joined by “and”; a condition that tells them apart may be missing. Identical values can stand only once. Inconclusive results and toxic doses are left out. Rule for the calls: active = survival T/C of 150% or more; inactive = T/C below 125% in these data.

Tested on: BDF1 mice, P388 leukemia ip, median survival T/C
Assay: NCI In Vivo Anticancer Drug Screen. Data for tumor model P388 Leukemia (intraperitoneal) in B6D2F1 (BDF1) mice
Conditions: endpoint: median survival time, higher = longer survival
How it was run: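 Read-out is survival of treated animals expressed relative to the vehicle group, as a T/C ratio.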

[1] = dose: 100.0 mg/kg/injection, schedule: Q04DX003 (ip), vehicle: saline
[2] = dose: 200.0 mg/kg/injection, schedule: Q04DX003 (ip), vehicle: saline
[3] = dose: 400.0 mg/kg/injection, schedule: Q04DX003 (ip), vehicle: saline
[4] = dose: 50.0 mg/kg/injection, schedule: Q01DX009 (ip), vehicle: saline with Tween-80
[5] = dose: 100.0 mg/kg/injection, schedule: Q01DX009 (ip), vehicle: saline with Tween-80
[6] = dose: 100.0 mg/kg/injection, schedule: Q04DX003 (ip), vehicle: saline with Tween-80
[7] = dose: 200.0 mg/kg/injection, schedule: Q01DX009 (ip), vehicle: saline with Tween-80
[8] = dose: 200.0 mg/kg/injection, schedule: Q04DX003 (ip), vehicle: saline with Tween-80
[9] = dose: 400.0 mg/kg/injection, schedule: Q04DX003 (ip), vehicle: saline with Tween-80
[10] = dose: 1.56 mg/kg/injection, schedule: Q01DX009 (ip), vehicle: saline with Tween-80
[11] = dose: 6.25 mg/kg/injection, schedule: Q01DX009 (ip), vehicle: saline with Tween-80
[12] = dose: 12.5 mg/kg/injection, schedule: Q01DX009 (ip), vehicle: saline with Tween-80
[13] = dose: 100.0 mg/kg/injection, schedule: Q01DX009 (ip), vehicle: Klucel (hydroxypropylcellulose) (HPC)
[14] = dose: 100.0 mg/kg/injection, schedule: Q04DX003 (ip), vehicle: Klucel (hydroxypropylcellulose) (HPC)
[15] = dose: 200.0 mg/kg/injection, schedule: Q01DX009 (ip), vehicle: Klucel (hydroxypropylcellulose) (HPC)
[16] = dose: 200.0 mg/kg/injection, schedule: Q04DX003 (ip), vehicle: Klucel (hydroxypropylcellulose) (HPC)
[17] = dose: 400.0 mg/kg/injection, schedule: Q01DX009 (ip), vehicle: Klucel (hydroxypropylcellulose) (HPC)
[18] = dose: 400.0 mg/kg/injection, schedule: Q04DX003 (ip), vehicle: Klucel (hydroxypropylcellulose) (HPC)
[19] = dose: 12.5 mg/kg/injection, schedule: Q01DX009 (ip), vehicle: saline
[20] = dose: 25.0 mg/kg/injection, schedule: Q01DX009 (ip), vehicle: saline
[21] = dose: 25.0 mg/kg/injection, schedule: Q04DX003 (ip), vehicle: saline
[22] = dose: 50.0 mg/kg/injection, schedule: Q01DX009 (ip), vehicle: saline
[23] = dose: 50.0 mg/kg/injection, schedule: Q04DX003 (ip), vehicle: saline
[24] = dose: 100.0 mg/kg/injection, schedule: Q01DX009 (ip), vehicle: saline

Measured: T/C

O=C1CSC(=S)N1c1ccco1
inactive: dose: 50.0 mg/kg/injection, schedule: Q01DX001 (ip), vehicle: Klucel (hydroxypropylcellulose) (HPC) 100 % of control | dose: 100.0 mg/kg/injection, schedule: Q01DX001 (ip), vehicle: Klucel (hydroxypropylcellulose) (HPC) 95 % of control | [1] 104 % of control | dose: 200.0 mg/kg/injection, schedule: Q01DX001 (ip), vehicle: Klucel (hydroxypropylcellulose) (HPC) 95 % of control | [2] 100 % of control | [3] 100 % of control

O=c1[nH]cnc2c(Cl)c(C(Cl)(Cl)Cl)nn12 (tested in a mixture with another compound)
inactive: [4] 99 % of control | [5] 90 % of control and 103 % of control | [6] 111 % of control | [7] 99 % of control and 114 % of control | [8] 104 % of control | dose: 400.0 mg/kg/injection, schedule: Q01DX009 (ip), vehicle: saline with Tween-80 93 % of control and 112 % of control | [9] 102 % of control

NC(=O)/C=C/C(=O)c1c(Cl)cccc1Cl
inactive: [10] 109 % of control and 115 % of control | dose: 3.13 mg/kg/injection, schedule: Q01DX009 (ip), vehicle: saline with Tween-80 118 % of control | [11] 123 % of control and 124 % of control | [12] 95 % of control

COC(=O)N(CCCl)N=O
inactive: dose: 2.5 mg/kg/injection, schedule: Q01DX001 (ip), vehicle: saline with Tween-80 109 % of control | dose: 5.0 mg/kg/injection, schedule: Q01DX001 (ip), vehicle: saline with Tween-80 109 % of control | dose: 10.0 mg/kg/injection, schedule: Q01DX001 (ip), vehicle: saline with Tween-80 123 % of control

C=CCOC(=O)c1ccccc1N
inactive: [5] 118 % of control | [6] 110 % of control | [7] 118 % of control | [8] 115 % of control | [9] 110 % of control

CCC(=O)Nc1ccc(C)cc1C
inactive: [13] 104 % of control | [14] 104 % of control | [15] 100 % of control | [16] 90 % of control | [17] 95 % of control | [18] 90 % of control

c1ccc2c(CNC3CCCCC3)c[nH]c2c1
inactive: [14] 95 % of control | [16] 90 % of control | [18] 90 % of control

COC(=O)C(CCCCNC(=O)OCc1ccccc1)NC(=O)C(CCCCNC(=O)OCc1ccccc1)NC(=O)OC(C)(C)C (stereo not given)
inactive: dose: 200.0 mg/kg/injection, schedule: Q01DX005 (ip), vehicle: saline with Tween-80 90 % of control

O=C1NC(c2ccccc2)(c2ccccc2)C(=O)N1SC(Cl)(Cl)Cl
inactive: dose: 3.12 mg/kg/injection, schedule: Q01DX009 (ip), vehicle: Klucel (hydroxypropylcellulose) (HPC) 123 % of control | dose: 6.25 mg/kg/injection, schedule: Q01DX009 (ip), vehicle: Klucel (hydroxypropylcellulose) (HPC) 120 % of control | dose: 12.5 mg/kg/injection, schedule: Q01DX009 (ip), vehicle: Klucel (hydroxypropylcellulose) (HPC) 120 % of control | dose: 25.0 mg/kg/injection, schedule: Q01DX009 (ip), vehicle: Klucel (hydroxypropylcellulose) (HPC) 117 % of control | dose: 50.0 mg/kg/injection, schedule: Q01DX009 (ip), vehicle: Klucel (hydroxypropylcellulose) (HPC) 106 % of control

NC(=O)OCC#CCCl
inactive: [4] 100 % of control | [5] 98 % of control | [7] 96 % of control

CC(C)(COC(=O)c1cc(Br)ccc1Br)NC(=O)c1cc(Br)ccc1Br
inactive: [4] 91 % of control | [5] 97 % of control | [7] 97 % of control

NC1=CC(=O)c2ccccc2C1=O
inactive: [11] 101 % of control | [12] 113 % of control | dose: 25.0 mg/kg/injection, schedule: Q01DX009 (ip), vehicle: saline with Tween-80 103 % of control | [4] 103 % of control

CS(=O)(=O)Nc1ccc(Nc2c3ccccc3nc3cc([N+](=O)[O-])ccc23)cc1
active: dose: 0.75 mg/kg/injection, schedule: Q01DX009 (ip), vehicle: saline with Tween-80 169 % of control | dose: 1.5 mg/kg/injection, schedule: Q01DX009 (ip), vehicle: saline with Tween-80 185 % of control | dose: 1.5 mg/kg/injection, schedule: Q04DX003 (ip), vehicle: saline with Tween-80 150 % of control | dose: 3.0 mg/kg/injection, schedule: Q01DX009 (ip), vehicle: saline with Tween-80 235 % of control | dose: 3.0 mg/kg/injection, schedule: Q04DX003 (ip), vehicle: saline with Tween-80 162 % of control | dose: 6.0 mg/kg/injection, schedule: Q04DX003 (ip), vehicle: saline with Tween-80 252 % of control and 183 % of control and 200 % of control | dose: 9.0 mg/kg/injection, schedule: Q04DX003 (ip), vehicle: saline with Tween-80 285 % of control and 204 % of control | dose: 14.0 mg/kg/injection, schedule: Q04DX003 (ip), vehicle: saline with Tween-80 250 % of control and 285 % of control | dose: 21.0 mg/kg/injection, schedule: Q04DX003 (ip), vehicle: saline with Tween-80 250 % of control and 272 % of control and 157 % of control
inactive: dose: 0.09 mg/kg/injection, schedule: Q04DX003 (ip), vehicle: saline with Tween-80 91 % of control | dose: 0.18 mg/kg/injection, schedule: Q04DX003 (ip), vehicle: saline with Tween-80 100 % of control

Cc1cc2nc(CO)[nH]c2cc1C
inactive: [13] 100 % of control | [15] 86 % of control | [17] 95 % of control

COc1ccc(C(=O)C(Br)C(Br)C(=O)O)cc1 (stereo not given)
inactive: [19] 100 % of control | [20] 95 % of control and 104 % of control | [21] 100 % of control | [22] 95 % of control and 112 % of control | [23] 109 % of control | [24] 105 % of control | [1] 86 % of control

CN1C2CCC1CN(Cc1ccccc1)C2
inactive: [19] 95 % of control | dose: 12.5 mg/kg/injection, schedule: Q04DX003 (ip), vehicle: saline 88 % of control | [20] 95 % of control | [21] 100 % of control | [22] 91 % of control | [23] 100 % of control

CC(Br)C(=O)NCC(=O)NCC(=O)O (stereo not given)
inactive: [24] 108 % of control | [1] 108 % of control | dose: 200.0 mg/kg/injection, schedule: Q01DX009 (ip), vehicle: saline 91 % of control | [2] 91 % of control | [3] 87 % of control

COc1ccc(Cl)cc1N
inactive: [4] 95 % of control | [5] 91 % of control

CCOCCO
inactive: dose: 5.0 mg/kg/injection, schedule: Q01DX009 (ip), vehicle: saline 103 % of control | dose: 5.0 mg/kg/injection, schedule: Q04DX003 (ip), vehicle: saline 92 % of control | dose: 10.0 mg/kg/injection, schedule: Q01DX009 (ip), vehicle: saline 88 % of control | dose: 10.0 mg/kg/injection, schedule: Q04DX003 (ip), vehicle: saline 92 % of control | dose: 20.0 mg/kg/injection, schedule: Q04DX003 (ip), vehicle: saline 88 % of control

Oc1c(Cl)cc(Cl)cc1/C=N/c1nc(-c2ccc(Cl)cc2)cs1
inactive: dose: 0.78 mg/kg/injection, schedule: Q01DX009 (ip), vehicle: saline with Tween-80 100 % of control | [10] 96 % of control | dose: 3.12 mg/kg/injection, schedule: Q01DX009 (ip), vehicle: saline with Tween-80 105 % of control

Cc1cc(N(CCCl)CCCl)ccc1C=NC1CCCC1
inactive: [14] 95 % of control | [16] 108 % of control
active: [13] 150 % of control | dose: 133.0 mg/kg/injection, schedule: Q01DX009 (ip), vehicle: Klucel (hydroxypropylcellulose) (HPC) 169 % of control | [15] 188 % of control and 200 % of control

CCOC(=O)CCCc1ccccc1
inactive: [6] 113 % of control | [8] 100 % of control | [9] 100 % of control
